Data from EP0103381B1, “Substituted anthra(1,9-cd)pyrazol-6(2H)-ones” (WARNER-LAMBERT COMPANY, priority 1982, dated 1984).
Read-outs that look alike come from different tables or passages of the source.

How the values were obtained:
Aerobacter aerogenes = experiment: agar plate paper-disc inhibition zone screening; type: cell-based; settings: Klebsiella aerogenes, read-out: Inhibition Zone Diameter mm (Dose mg/ml) A. Aerogenes; for zone of inhibition at 3000 µg/mL: Dose 3.0 mg/ml; for zone of inhibition at 500 µg/mL: Dose 0.5 mg/ml; for zone of inhibition at 1000 µg/mL: Dose 1.0 mg/ml; for zone of inhibition at 100 µg/mL: Dose 0.1 mg/ml
In short: (§1)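 Overnight bacterial cultures were suspended in 0.85% saline to 20-35% light transmittancy and mixed into molten assay agar poured in trays. Compounds at 3,000, 1,000, 500, 100 and 10 mcg/ml (solvent <10%) were applied to 12.7 mm paper discs; after 18-20 h at 37°C, inhibition zone diameters were measured in mm.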

Bacillus subtilis = experiment: agar plate paper-disc inhibition zone screening; type: cell-based; settings: read-out: Inhibition Zone Diameter mm (Dose mg/ml) B. Subtilis; for zone of inhibition at 500 µg/mL: Dose 0.5 mg/ml; for zone of inhibition at 100 µg/mL: Dose 0.1 mg/ml; for zone of inhibition at 1000 µg/mL: Dose 1.0 mg/ml
In short: as §1

Escherichia coli = experiment: agar plate paper-disc inhibition zone screening; type: cell-based; settings: read-out: Inhibition Zone Diameter mm (Dose mg/ml) E. Coli; for zone of inhibition at 500 µg/mL: Dose 0.5 mg/ml; for zone of inhibition at 100 µg/mL: Dose 0.1 mg/ml; for zone of inhibition at 3000 µg/mL: Dose 3.0 mg/ml; for zone of inhibition at 1000 µg/mL: Dose 1.0 mg/ml
In short: as §1

Streptococcus faecalis = experiment: agar plate paper-disc inhibition zone screening; type: cell-based; settings: Enterococcus faecalis, read-out: Inhibition Zone Diameter mm (Dose mg/ml) S. Faecalis; for zone of inhibition at 500 µg/mL: Dose 0.5 mg/ml; for zone of inhibition at 3000 µg/mL: Dose 3.0 mg/ml; for zone of inhibition at 1000 µg/mL: Dose 1.0 mg/ml
In short: as §1

Penicillium avellaneum = experiment: agar plate paper-disc inhibition zone screening; type: cell-based; settings: Hamigera avellanea, read-out: Inhibition Zone Diameter mm (Dose mg/ml) P. Avellaneum; for zone of inhibition at 3000 µg/mL: Dose 3.0 mg/ml
In short: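 Mycelia and spores from a six-day 28°C agar culture, suspended in saline with 0.05% Tween 80 at 20% transmittancy, were seeded into molten agar trays. Compounds at 3,000, 1,000, 500, 100 and 10 mcg/ml (solvent <10%) were applied on 12.7 mm paper discs. After at least 20-24 h incubation, inhibition zone diameter was measured in mm.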

[1] = tested on: lymphocytic leukemia P388; experiment: in vivo lymphocytic leukemia P388 test; parameters: species or system mice; settings: Mus musculus, P388, ip, 720 h, two single doses four days apart, read-out: T/C × 100 (Percent); for response vs control in vivo at 25 mg/kg: P388, Dose 25 mg/kg intraperitoneally; for response vs control in vivo at 1.56 mg/kg: P388, Dose 1.56 mg/kg intraperitoneally; for response vs control in vivo at 3.12 mg/kg: P388, Dose 3.12 mg/kg intraperitoneally; for response vs control in vivo at 12.5 mg/kg: P388, Dose 12.5 mg/kg intraperitoneally; for response vs control in vivo at 6.25 mg/kg: P388, Dose 6.25 mg/kg intraperitoneally
In short: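 Efficacy was judged from the treated/control survival-time ratio over 30 days (T/C×100 >125% as criterion). Mice (CD2F, 6–7/group) received i.p. P388 ascites cells, then compound i.p. at varied doses twice, four days apart.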

[2] = tested on: HCT-8 (human colon adenocarcinoma) cells; experiment: in vitro activity against human colon adenocarcinoma (HCT-8), cell count; type: cell-based
Procedure: HCT-8 (human colon adenocarcinoma) cells are trypsinized using Trypsin-EDTA. A single cell suspension is achieved by passing the cells through a 26 gauge needle with a 20 cc syringe. A cell suspension is prepared using RPMI 1640 growth medium (available from Gibco Laboratories) +10% fetal calf serum +50 µg/ml garamycin with a cell concentration of approximately 30,000 cells/ml. The cell suspension is dispensed in Linbro 24-well plates; 1 ml/well. The plates are incubated for approximately 48 hrs at 37°C in a 5% C02 atmosphere. At this time test compounds are added in the appropriate concentration. Five µl of the 200 µg/ml stock solution is added to each well in a primary test. Ten pl of the appropriate dilution is added to each well for a titration test. The plates are reincubated an additional 60-65 hrs at 37°C in a 5% C02 atmosphere. The test is read by lysing the cells using a mix of cationic surfactant, glacial acetic acid and sodium chloride. […] of the lysed cell suspension from each well is added to 8 ml of diluent. Each sample is read with a Coulter counter (ZBI model). The activity of each sample is measured as a percentage of the controls and the data is reported as ID50, that is the molar quantity of drug required to kill 50% of the tumor cells.

[3] = Homo sapiens, HCT-8 cells, 60-65 hrs with compound, molar quantity of drug required to kill 50% of the tumor cells, read-out: ID50 Molar

Structure (SMILES) | zone of inhibition at 500 µg/mL (Streptococcus faecalis) [mm] | zone of inhibition at 3000 µg/mL (Penicillium avellaneum) [mm] | response vs control in vivo at 25 mg/kg [1] [%] | IC50 [2, 3] [nM] | zone of inhibition at 500 µg/mL (Aerobacter aerogenes) [mm] | zone of inhibition at 100 µg/mL (Bacillus subtilis) [mm] | zone of inhibition at 3000 µg/mL (Streptococcus faecalis) [mm] | response vs control in vivo at 1.56 mg/kg [1] [%] | zone of inhibition at 3000 µg/mL (Escherichia coli) [mm] | response vs control in vivo at 6.25 mg/kg [1] [%] | further results
CCN(CC)CCNc1ccc2c3c(nn2CCN(CC)CC)-c2c(O)ccc(O)c2C(=O)c13 [Example 29, 2-[2-(Diethylamino)ethyl]-5-[[2-(diethylamino)ethyl]amino]-7,10-dihydroxyanthra[1,9-cd]pyrazol-6(2H)-one] | 14 | 16 | 140 | 640 | – | – | – | – | – | – | zone of inhibition at 3000 µg/mL (Aerobacter aerogenes): 0 mm; zone of inhibition at 500 µg/mL (Bacillus subtilis): 14 mm; zone of inhibition at 500 µg/mL (Escherichia coli): 14 mm; response vs control in vivo at 100 mg/kg ([1]; P388, Dose 100 mg/kg intraperitoneally): 180%
NCCNc1ccc2c3c(nn2CCNCCO)-c2ccccc2C(=O)c13 [Example 22, 5-[(2-Aminoethyl)amino]-2-[2-[(2-hydroxyethyl)amino]ethyl]anthra[1,9-cd]pyrazol-6(2H)-one] | – | 0 | 189 | 42 | 16 | 15 | 0 | 150 | – | – | zone of inhibition at 100 µg/mL (Escherichia coli): 14 mm; response vs control in vivo at 3.12 mg/kg [1]: 162%; response vs control in vivo at 12.5 mg/kg [1]: 175%
O=C1c2ccccc2-c2nn(CCNCCO)c3ccc(NCCNCCO)c1c23 [Example 21, 2-[2-[(2-Hydroxyethyl)amino]ethyl]-5-[[2-[(2-hydroxyethyl)amino]ethyl]amino]anthra[1,9-cd]pyrazol-6(2H)-one] | – | 0 | 171 | 960 | – | – | 0 | 132 | 16 | 147 | zone of inhibition at 1000 µg/mL (Aerobacter aerogenes): 14 mm; zone of inhibition at 500 µg/mL (Bacillus subtilis): 18 mm; response vs control in vivo at 50 mg/kg ([1]; P388, Dose 50 mg/kg intraperitoneally): 199%
CN(C)CCCn1nc2c3c(c(NCCNCCO)ccc31)C(=O)c1c(O)ccc(O)c1-2 [Example 46, 2-[3-(Dimethylamino)propyl]-7,10-dihydroxy-5-[[2-[(2-hydroxyethyl)amino]ethyl]amino]anthra[1,9-cd]pyrazol-6(2H)-one] | – | 0 | – | – | – | – | 0 | – | 0 | 185 | zone of inhibition at 3000 µg/mL (Aerobacter aerogenes): 16 mm; zone of inhibition at 3000 µg/mL (Bacillus subtilis; Dose 3.0 mg/ml): 0 mm; response vs control in vivo at 12.5 mg/kg [1]: 218%; IC50 ([2]; HCT-8 human colon adenocarcinoma cells, 60-65 hrs incubation with compound, Coulter counter cell count as percentage of controls, read-out: ID50 (the source's name)): 92 nM
CCN(CC)CCn1nc2c3c(c(NCCN)ccc31)C(=O)c1c(O)ccc(O)c1-2 [Example 30, 5-[(2-Aminoethyl)amino]-2-(2-(diethylamino)ethyl]-7,10-dihydroxyanthra[1,9-cd]pyrazol-6(2H)-one] | – | 14 | 179 | 380 | 16 | – | 0 | 172 | – | 189 | zone of inhibition at 1000 µg/mL (Bacillus subtilis): 16 mm; zone of inhibition at 1000 µg/mL (Escherichia coli): 15 mm; response vs control in vivo at 3.12 mg/kg [1]: 154%
CNc1ccc2c3c(nn2CCNCCO)-c2ccccc2C(=O)c13 [Example 26, 2-[2-[(2-Hydroxyethyl)amino]ethyl]-5-(methylamino)anthra[1,9-cd]pyrazol-6(2H)-one] | 15 | 0 | – | 280 | – | 14 | – | – | – | – | zone of inhibition at 100 µg/mL (Aerobacter aerogenes): 15 mm; zone of inhibition at 500 µg/mL (Escherichia coli): 14 mm
CCN(CC)CCCNc1ccc2c3c(nn2CCO)-c2ccccc2C(=O)c13 [Example 15, 5-[[3-(Diethylamino)propyl]amino]-2-(2-hydroxyethyl)anthra[1,9-cd]pyrazol-6(2H)-one] | – | 0 | – | 480 | – | – | 14 | – | 0 | – | zone of inhibition at 1000 µg/mL (Aerobacter aerogenes): 15 mm; zone of inhibition at 1000 µg/mL (Bacillus subtilis): 22 mm
CCN(CC)CCNc1ccc2c3c(nn2CCNCCO)-c2ccccc2C(=O)c13 [Example 23, 5-[[2-(Diethylamino)ethyl]amino]-2-[2-[(2-hydroxyethyl)amino]ethyl]anthra[1,9-cd]pyrazol-6(2H)-one] | 15 | 16 | 149 | 120 | 18 | 14 | – | 138 | – | 138 | zone of inhibition at 100 µg/mL (Escherichia coli): 14 mm; response vs control in vivo at 3.12 mg/kg [1]: 143%; response vs control in vivo at 12.5 mg/kg [1]: 150%
CCN(CC)CCNc1ccc2c3c(nn2CCO)-c2ccccc2C(=O)c13 [Example 13, 5-[[2-(Diethylamino]ethyl]amino]-2-(2-hydroxyethyl)anthra[1,9-cd]pyrazol-6(2H)-one] | – | 16 | – | 1800 | 20 | 15 | – | – | – | – | zone of inhibition at 1000 µg/mL (Escherichia coli): 15 mm; zone of inhibition at 1000 µg/mL (Streptococcus faecalis): 14 mm
CCN(CC)CCCNc1ccc2c3c(nn2CCN(CC)CC)-c2ccccc2C(=O)c13 [Example 5, 2-[2-(Diethylamino)ethyl]-5-[[3-(diethylamino)propyl]amino]anthra[1,9-cd]pyrazol-6(2H)-one] | – | 15 | – | 180 | – | – | – | – | 15 | – | zone of inhibition at 100 µg/mL (Aerobacter aerogenes): 20 mm; zone of inhibition at 1000 µg/mL (Bacillus subtilis): 25 mm; zone of inhibition at 1000 µg/mL (Streptococcus faecalis): 14 mm
CCN(CC)CCNc1cccc2c1C(=O)c1cccc3c1c-2nn3CCN(CC)CC [Example 80, 2-[2-(Diethylamino)ethyl]-7-[[2-(diethylamino)ethyi]amino]anthra[1,9-cd]pyrazol-6(2H)-one] | 15 | – | – | 220 | 16 | 19 | – | – | – | – | zone of inhibition at 500 µg/mL (Escherichia coli): 14 mm; zone of inhibition at 1000 µg/mL (Penicillium avellaneum; Dose 1.0 mg/ml): 16 mm
